Test results: US4820694A, “Modifications of 3-O-demethylmycinose in macrocin and lactenocin” (priority 1986, dated 1989)
≈ marks a conversion by molar mass, not a printed value. Read-outs that look alike come from different tables or passages of the source.

Legend:
Escherichia coli EC14 = assay: standard agar-dilution MIC assay; assay type: cell-based; conditions: agar-dilution, read-out: MIC
Method: (§1) The MIC's in Table III were determined by standard agar-dilution assays. The MIC's in Table IV were obtained using conventional brothdilution microtiter tests.

[1] = test system: Haemophilus influenzae 76; assay: standard agar-dilution MIC assay; assay type: cell-based; conditions: Haemophilus influenzae, 76
Method: as §1

[2] = test system: Haemophilus influenzae C.L.; assay: standard agar-dilution MIC assay; assay type: cell-based; conditions: Haemophilus influenzae
Method: as §1

[3] = test system: Klebsiella pneumoniae X68; assay: standard agar-dilution MIC assay; assay type: cell-based; conditions: Klebsiella pneumoniae, X68; agar-dilution; read-out: MIC
Method: as §1

[4] = test system: Pseudomonas aeruginosa X239; assay: standard agar-dilution MIC assay; assay type: cell-based; conditions: Pseudomonas aeruginosa, X239; agar-dilution; read-out: MIC
Method: as §1

[5] = test system: Staphylococcus aureus V41; assay: standard agar-dilution MIC assay; assay type: cell-based; conditions: Staphylococcus aureus, V41
Method: as §1

[6] = test system: Staphylococcus aureus X1.1; assay: standard agar-dilution MIC assay; assay type: cell-based; conditions: Staphylococcus aureus, X1.1
Method: as §1

[7] = test system: Staphylococcus aureus X400; assay: standard agar-dilution MIC assay; assay type: cell-based; conditions: Staphylococcus aureus, X400
Method: as §1

[8] = test system: Staphylococcus epidermidis 222; assay: standard agar-dilution MIC assay; assay type: cell-based; conditions: Staphylococcus epidermidis, 222
Method: as §1

[9] = test system: Staphylococcus epidermidis EPI1; assay: standard agar-dilution MIC assay; assay type: cell-based; conditions: Staphylococcus epidermidis, EPI1
Method: as §1

[10] = test system: Streptococcus Group D 2041; assay: standard agar-dilution MIC assay; assay type: cell-based; conditions: GROUPD2041
Method: as §1

[11] = test system: Streptococcus Group D X66; assay: standard agar-dilution MIC assay; assay type: cell-based; conditions: read-out: MIC
Method: as §1

[12] = test system: Streptococcus pyogenes C203; assay: standard agar-dilution MIC assay; assay type: cell-based; conditions: Streptococcus pyogenes, C203
Method: as §1

[13] = test system: Staphylococcus aureus S13E; assay: microbe, parasite or virus in culture; assay type: cell-based; conditions: Staphylococcus aureus, S13E
Method: as §1

[14] = test system: Streptococcus pneumoniae Park I; assay: microbe, parasite or virus in culture; assay type: cell-based; conditions: Streptococcus pneumoniae
Method: as §1

[15] = test system: Bordetella bronchiseptica; assay: broth-dilution microtiter MIC test; assay type: cell-based; conditions: Bordetella bronchiseptica
Method: as §1

[16] = test system: Mycoplasma gallisepticum 15E; assay: broth-dilution microtiter MIC test; assay type: cell-based; conditions: Mycoplasmoides gallisepticum, 15E
Method: as §1

[17] = test system: Mycoplasma gallisepticum 29C; assay: broth-dilution microtiter MIC test; assay type: cell-based; conditions: Mycoplasmoides gallisepticum, 29C
Method: as §1

[18] = test system: Mycoplasma gallisepticum 36H; assay: broth-dilution microtiter MIC test; assay type: cell-based; conditions: Mycoplasmoides gallisepticum, 36H
Method: as §1

[19] = test system: Mycoplasma hyopneumoniae S5972; assay: broth-dilution microtiter MIC test; assay type: cell-based; conditions: Mesomycoplasma hyopneumoniae, S5972
Method: as §1

Mycoplasma hyorhinis 29E = assay: broth-dilution microtiter MIC test; assay type: cell-based; conditions: Mycoplasma, 29E
Method: as §1

Mycoplasma synoviae 40A = assay: broth-dilution microtiter MIC test; assay type: cell-based; conditions: Mycoplasmopsis synoviae, 40A
Method: as §1

[20] = test system: Pasteurella hemolytica 22C; assay: broth-dilution microtiter MIC test; assay type: cell-based; conditions: Pasteurella, 22C
Method: as §1

[21] = test system: Pasteurella hemolytica 23C; assay: broth-dilution microtiter MIC test; assay type: cell-based; conditions: Pasteurella, 23C
Method: as §1

[22] = test system: Pasteurella hemolytica 41D; assay: broth-dilution microtiter MIC test; assay type: cell-based; conditions: Pasteurella, 41D
Method: as §1

[23] = test system: Pasteurella multocida 17E; assay: broth-dilution microtiter MIC test; assay type: cell-based; conditions: Pasteurella multocida, 17E
Method: as §1

[24] = test system: Pasteurella multocida 22A; assay: broth-dilution microtiter MIC test; assay type: cell-based; conditions: Pasteurella multocida, 22A
Method: as §1

[25] = test system: Pasteurella multocida 40G; assay: broth-dilution microtiter MIC test; assay type: cell-based; conditions: Pasteurella multocida, 40G
Method: as §1

[26] = test system: Pasteurella multocida 60A; assay: broth-dilution microtiter MIC test; assay type: cell-based; conditions: Pasteurella multocida, 60A
Method: as §1

[27] = test system: Pasteurella multocida 68C; assay: broth-dilution microtiter MIC test; assay type: cell-based; conditions: Pasteurella multocida, 68C
Method: as §1

[28] = test system: Staphylococcus aureus 19C; assay: broth-dilution microtiter MIC test; assay type: cell-based; conditions: Staphylococcus aureus, 19C
Method: as §1

Streptococcus sp. 19F = assay: broth-dilution microtiter MIC test; assay type: cell-based; conditions: Streptococcus, SP.19F
Method: as §1

[29] = test system: Streptococcus pyogenes C203; assay: protection of mice experimentally infected with S. pyogenes C203; assay type: in vivo; conditions: mice, mg/kg × 2, doses given 1 and 4 hours postinfection, read-out: ED50
Procedure, shortened: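 Activity is given as ED50, the mg/kg dose (×2) protecting half of the mice infected with S. pyogenes C203. Compound was dosed 1 and 4 h after infection.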

[30] = test system: Streptococcus Group D 9960; assay: standard agar-dilution MIC assay; assay type: cell-based; conditions: GROUPD9960, read-out: MIC
Method: as §1

Pasteurella multocida = Pasteurella multocida infection in one-day-old chicks; assay type: in vivo; conditions: subcutaneously, 30 mg/kg × 2, 1 and 4 hours post-challenge
Method: Some of the formula 1 compounds have also shown in vivo antibacterial activity against infections induced by Gram-negative bacteria. Table VI summarizes the results of tests in which illustrative compounds were evaluated against a Pasteurella infection in one-day-old chicks. The compounds were administered by subcutaneous injection at a dosage of 30 mg/kg, 1 and 4 hours post-challenge of the chicks with Pasteurella multocida (0.1 ml of a 10^-4 dilution of a twenty-hour tryptose broth culture of an avian P. multocida given subcutaneously). In these tests, unless indicated otherwise, all non-medicated infected chicks died within 24 hours of Pasteurella challenge.
^a Administered subcutaneously; 30 mg/kg × 2

[31] = broth-dilution microtiter, read-out: MIC

| Compound | MIC (Escherichia coli EC14) | MIC [1] | MIC [2] | MIC [3] | MIC [4] | MIC [5] | MIC [6] | MIC [7] | MIC [8] | MIC [9] | MIC [10] | MIC [11] | MIC [12] | MIC [13] | MIC [14] | MIC [15, 31] | MIC [17] | MIC (Mycoplasma hyorhinis 29E) | MIC [28] | ED50 ([29]; C203, sc, Subcutaneous) | further results |
| --- | --- | --- | --- | --- | --- | --- | --- | --- | --- | --- | --- | --- | --- | --- | --- | --- | --- | --- | --- | --- | --- |
| CCC1OC(=O)CC(O)C(C)C(OC2OC(C)C(O)C(N(C)C)C2O)C(CCOc2ccccc2)CC(C)C(=O)C=CC(C)=CC1COC1OC(C)C2OC(=O)OC2C1OC (centres unmarked) [Compound 53, 20-DH-20-O-Phenyl-lactenocin 3",4"-Carbonate] | > 128 µg/mL | 32 µg/mL (≈ 37.1 µM) | 64 µg/mL (≈ 74.2 µM) | > 128 µg/mL | > 128 µg/mL | 1 µg/mL (≈ 1.16 µM) | 1 µg/mL (≈ 1.16 µM) | 1 µg/mL (≈ 1.16 µM) | 0.5 µg/mL (≈ 0.58 µM) | 1 µg/mL (≈ 1.16 µM) | 8 µg/mL (≈ 9.28 µM) | 8 µg/mL (≈ 9.28 µM) | 0.5 µg/mL (≈ 0.58 µM) | 1 µg/mL (≈ 1.16 µM) | 2 µg/mL (≈ 2.32 µM) | > 50 µg/mL | 0.195 µg/mL (≈ 0.226 µM) | 25 µg/mL (≈ 29 µM) | 0.78 µg/mL (≈ 0.905 µM) | 6.1 mg/kg | MIC [16]: 50 µg/mL (≈ 58 µM); MIC [18]: 50 µg/mL (≈ 58 µM); MIC [19]: 3.12 µg/mL (≈ 3.62 µM); MIC (Mycoplasma synoviae 40A): 1.56 µg/mL (≈ 1.81 µM); MIC [20]: 50 µg/mL (≈ 58 µM); MIC [21]: 50 µg/mL (≈ 58 µM); MIC [22]: 50 µg/mL (≈ 58 µM); MIC [23]: 25 µg/mL (≈ 29 µM); MIC [24]: 50 µg/mL (≈ 58 µM); MIC [25]: 50 µg/mL (≈ 58 µM); MIC [26]: 25 µg/mL (≈ 29 µM); MIC [27]: 25 µg/mL (≈ 29 µM); MIC (Streptococcus sp. 19F): 3.12 µg/mL (≈ 3.62 µM); ED50 ([29]; C203, Oral): 18.7 mg/kg |
| CCC1OC(=O)CC(O)C(C)C(OC2OC(C)C(O)C(N(C)C)C2O)C(CC=O)CC(C)C(=O)C=CC(C)=CC1COC1OC(C)C2OC(C)(C)OC2C1OC (centres unmarked) [Compound 55, 3",4"-Isopropylidene Derivative of Lactenocin] | > 128 µg/mL | 16 µg/mL (≈ 20.1 µM) | 16 µg/mL (≈ 20.1 µM) | > 128 µg/mL | > 128 µg/mL | 2 µg/mL (≈ 2.51 µM) | 2 µg/mL (≈ 2.51 µM) | 4 µg/mL (≈ 5.01 µM) | 1 µg/mL (≈ 1.25 µM) | 2 µg/mL (≈ 2.51 µM) | 16 µg/mL (≈ 20.1 µM) | 32 µg/mL (≈ 40.1 µM) | 1 µg/mL (≈ 1.25 µM) | 2 µg/mL (≈ 2.51 µM) | 8 µg/mL (≈ 10 µM) | > 50 µg/mL | 0.39 µg/mL (≈ 0.489 µM) | 50 µg/mL (≈ 62.7 µM) | 3.12 µg/mL (≈ 3.91 µM) | > 10 mg/kg | MIC [16, 31]: > 50 µg/mL; MIC [18, 31]: > 50 µg/mL; MIC [19]: 0.78 µg/mL (≈ 0.977 µM); MIC (Mycoplasma synoviae 40A): 3.12 µg/mL (≈ 3.91 µM); MIC [20]: 50 µg/mL (≈ 62.7 µM); MIC [21]: 50 µg/mL (≈ 62.7 µM); MIC [22]: 50 µg/mL (≈ 62.7 µM); MIC [23]: 25 µg/mL (≈ 31.3 µM); MIC [24]: 25 µg/mL (≈ 31.3 µM); MIC [25]: 25 µg/mL (≈ 31.3 µM); MIC [26]: 50 µg/mL (≈ 62.7 µM); ED50 ([29]; C203, Oral): > 100 mg/kg |
| CCC1OC(=O)CC(O)C(C)C(OC2OC(C)C(O)C(N(C)C)C2OC(C)=O)C(CC=O)CC(C)C(=O)C=CC(C)=CC1COC1OC(C)C(OC(=O)COc2ccccc2)C(O)C1OC (centres unmarked) [Compound 33, 2'-O-Acetyl-4"-O-phenoxyacetyl-lactenocin] | > 128 µg/mL | – | – | > 128 µg/mL | > 128 µg/mL | 1 µg/mL (≈ 1.07 µM) | 1 µg/mL (≈ 1.07 µM) | – | – | 1 µg/mL (≈ 1.07 µM) | – | 1 µg/mL (≈ 1.07 µM) | 0.5 µg/mL (≈ 0.535 µM) | 1 µg/mL (≈ 1.07 µM) | – | – | – | 3.12 µg/mL (≈ 3.34 µM) | 0.78 µg/mL (≈ 0.835 µM) | 1.9 mg/kg | MIC ([1]; agar-dilution, Ampicillin-resistant strain, read-out: MIC): 8 µg/mL (≈ 8.56 µM); MIC ([2]; agar-dilution, Ampicillin-sensitive strain, read-out: MIC): 8 µg/mL (≈ 8.56 µM); MIC ([7]; agar-dilution, Methicillin-resistant strain, read-out: MIC): 2 µg/mL (≈ 2.14 µM); MIC [30]: 1 µg/mL (≈ 1.07 µM); MIC ([14]; agar-dilution, read-out: MIC): 0.25 µg/mL (≈ 0.268 µM); MIC [15]: 50 µg/mL (≈ 53.5 µM); MIC [16, 31]: 12.5 µg/mL (≈ 13.4 µM); MIC [17, 31]: 0.39 µg/mL (≈ 0.418 µM); MIC [18, 31]: 12.5 µg/mL (≈ 13.4 µM); MIC (Mycoplasma synoviae 40A; [31]): 0.39 µg/mL (≈ 0.418 µM); MIC [20, 31]: 12.5 µg/mL (≈ 13.4 µM); MIC [21, 31]: 12.5 µg/mL (≈ 13.4 µM); MIC [22, 31]: 12.5 µg/mL (≈ 13.4 µM); MIC ([23]; broth-dilution microtiter, Bovine isolate, read-out: MIC): 12.5 µg/mL (≈ 13.4 µM); MIC [24, 31]: 12.5 µg/mL (≈ 13.4 µM); MIC [25, 31]: 12.5 µg/mL (≈ 13.4 µM); MIC ([26]; broth-dilution microtiter, Avian isolate, read-out: MIC): 6.25 µg/mL (≈ 6.69 µM); MIC [27, 31]: 6.25 µg/mL (≈ 6.69 µM); MIC (Streptococcus sp. 19F; [31]): 0.39 µg/mL (≈ 0.418 µM); Number of Deaths/Number Treated (Pasteurella multocida): 8/10 |
